Source: patent US20240246942A1, “KINASE INHIBITORS FOR THE TREATMENT OF NEURODEGENERATIVE DISEASES” (priority 2020, published 2024)

Columns and labels:
Test in all cases: biochemical
[1] = molecular target: T1, panel of 374 wild-type kinases (Homo sapiens, UniProt Q16288); details: for remaining activity at 5 µM: read-out: % Enzyme Activity (relative to DMSO controls), kinase TRKC
T1 construct: purchased Reaction Biology Corporation

[2] = molecular target: T2, panel of 374 wild-type kinases (Homo sapiens, UniProt P48730); details: read-out: % Enzyme Activity (relative to DMSO controls), CK1d
T2 construct: purchased Reaction Biology Corporation

[3] = molecular target: T3, panel of 374 wild-type kinases (Homo sapiens, UniProt Q86UX6); details: read-out: % Enzyme Activity (relative to DMSO controls), kinase STK32C/YANK3
T3 construct: purchased Reaction Biology Corporation

[4] = molecular target: T4, panel of 374 wild-type kinases (Homo sapiens, UniProt P36507); details: read-out: % Enzyme Activity (relative to DMSO controls), MEK2
T4 construct: purchased Reaction Biology Corporation

[5] = molecular target: T5, panel of 374 wild-type kinases (Homo sapiens, UniProt P36896); details: read-out: % Enzyme Activity (relative to DMSO controls), ALK4/ACVR1B
T5 construct: purchased Reaction Biology Corporation
T5 sequence (P36896 24-505): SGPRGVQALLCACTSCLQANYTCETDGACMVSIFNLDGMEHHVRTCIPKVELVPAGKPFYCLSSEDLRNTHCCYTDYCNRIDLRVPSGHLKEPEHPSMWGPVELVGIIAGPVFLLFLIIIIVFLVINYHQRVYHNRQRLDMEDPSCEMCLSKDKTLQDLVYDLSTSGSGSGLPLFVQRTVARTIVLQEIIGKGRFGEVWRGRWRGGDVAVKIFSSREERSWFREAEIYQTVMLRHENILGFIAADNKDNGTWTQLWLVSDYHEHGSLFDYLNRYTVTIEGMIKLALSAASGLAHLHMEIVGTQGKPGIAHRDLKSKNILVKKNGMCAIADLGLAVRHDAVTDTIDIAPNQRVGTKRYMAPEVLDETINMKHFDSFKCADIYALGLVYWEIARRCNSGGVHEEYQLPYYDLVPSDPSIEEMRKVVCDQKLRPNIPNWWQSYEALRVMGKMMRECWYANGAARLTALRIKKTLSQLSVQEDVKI

[6] = molecular target: T6, panel of 374 wild-type kinases (Homo sapiens, UniProt P07948); details: read-out: % Enzyme Activity (relative to DMSO controls), LYN
T6 construct: purchased Reaction Biology Corporation

[7] = molecular target: T7, panel of 374 wild-type kinases (Homo sapiens, UniProt Q16816); details: read-out: % Enzyme Activity (relative to DMSO controls), kinase PHKg1
T7 construct: purchased Reaction Biology Corporation

[8] = molecular target: T8, panel of 374 wild-type kinases (Homo sapiens, UniProt P41279); details: read-out: % Enzyme Activity (relative to DMSO controls), COT1/MAP3K8
T8 construct: purchased Reaction Biology Corporation

[9] = molecular target: T9, panel of 374 wild-type kinases (Homo sapiens, UniProt Q7L7X3); details: read-out: % Enzyme Activity (relative to DMSO controls), kinase TAOK1
T9 construct: purchased Reaction Biology Corporation
T9 sequence (Q7L7X3 1-1001): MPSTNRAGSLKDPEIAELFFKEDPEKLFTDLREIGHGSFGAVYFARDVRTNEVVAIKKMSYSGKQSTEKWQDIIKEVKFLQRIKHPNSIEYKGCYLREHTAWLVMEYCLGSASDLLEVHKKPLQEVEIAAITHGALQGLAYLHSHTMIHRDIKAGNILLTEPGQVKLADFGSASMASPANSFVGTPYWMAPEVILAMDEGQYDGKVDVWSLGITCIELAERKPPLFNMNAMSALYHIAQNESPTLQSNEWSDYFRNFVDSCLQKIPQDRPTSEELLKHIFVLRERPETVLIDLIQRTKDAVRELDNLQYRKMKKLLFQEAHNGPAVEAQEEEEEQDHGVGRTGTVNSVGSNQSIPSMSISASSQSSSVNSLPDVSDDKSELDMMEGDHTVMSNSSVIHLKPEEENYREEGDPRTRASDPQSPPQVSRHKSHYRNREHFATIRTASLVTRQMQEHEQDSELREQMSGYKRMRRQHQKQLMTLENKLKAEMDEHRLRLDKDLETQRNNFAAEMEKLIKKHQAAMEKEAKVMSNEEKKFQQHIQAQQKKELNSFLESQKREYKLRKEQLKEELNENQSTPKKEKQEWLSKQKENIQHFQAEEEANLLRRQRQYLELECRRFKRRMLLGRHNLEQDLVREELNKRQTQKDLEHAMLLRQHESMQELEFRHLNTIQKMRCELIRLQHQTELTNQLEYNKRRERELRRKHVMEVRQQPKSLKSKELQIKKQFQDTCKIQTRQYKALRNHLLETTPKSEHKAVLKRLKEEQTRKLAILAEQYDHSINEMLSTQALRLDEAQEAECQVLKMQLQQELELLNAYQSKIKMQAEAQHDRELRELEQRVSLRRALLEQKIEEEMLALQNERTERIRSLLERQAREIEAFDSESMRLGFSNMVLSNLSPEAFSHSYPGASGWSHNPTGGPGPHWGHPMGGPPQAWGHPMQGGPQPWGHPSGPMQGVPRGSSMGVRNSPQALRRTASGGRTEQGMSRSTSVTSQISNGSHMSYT

T7 sequence (Q16816 whole entry): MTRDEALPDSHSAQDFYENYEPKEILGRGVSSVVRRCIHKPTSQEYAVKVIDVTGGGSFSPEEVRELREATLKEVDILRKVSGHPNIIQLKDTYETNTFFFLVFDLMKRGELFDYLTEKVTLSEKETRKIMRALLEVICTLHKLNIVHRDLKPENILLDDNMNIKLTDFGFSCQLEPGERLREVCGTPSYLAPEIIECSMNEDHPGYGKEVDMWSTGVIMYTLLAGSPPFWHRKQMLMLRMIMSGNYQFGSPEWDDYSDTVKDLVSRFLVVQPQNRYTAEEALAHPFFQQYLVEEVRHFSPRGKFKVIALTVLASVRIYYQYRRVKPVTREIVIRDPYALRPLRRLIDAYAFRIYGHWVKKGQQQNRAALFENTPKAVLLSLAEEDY
T8 sequence (P41279 whole entry): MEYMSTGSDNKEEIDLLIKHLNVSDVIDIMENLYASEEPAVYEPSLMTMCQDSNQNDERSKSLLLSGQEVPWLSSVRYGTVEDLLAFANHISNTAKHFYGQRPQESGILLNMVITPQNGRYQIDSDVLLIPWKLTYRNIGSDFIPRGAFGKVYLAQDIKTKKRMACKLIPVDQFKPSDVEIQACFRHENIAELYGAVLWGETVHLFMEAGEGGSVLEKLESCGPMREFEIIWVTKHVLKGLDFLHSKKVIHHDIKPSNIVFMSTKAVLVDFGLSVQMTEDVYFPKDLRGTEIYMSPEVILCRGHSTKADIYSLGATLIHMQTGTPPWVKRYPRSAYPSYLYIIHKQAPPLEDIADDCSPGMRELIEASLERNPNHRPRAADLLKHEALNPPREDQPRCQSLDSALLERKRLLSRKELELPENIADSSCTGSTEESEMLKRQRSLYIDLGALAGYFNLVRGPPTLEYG
T2 sequence (P48730 whole entry): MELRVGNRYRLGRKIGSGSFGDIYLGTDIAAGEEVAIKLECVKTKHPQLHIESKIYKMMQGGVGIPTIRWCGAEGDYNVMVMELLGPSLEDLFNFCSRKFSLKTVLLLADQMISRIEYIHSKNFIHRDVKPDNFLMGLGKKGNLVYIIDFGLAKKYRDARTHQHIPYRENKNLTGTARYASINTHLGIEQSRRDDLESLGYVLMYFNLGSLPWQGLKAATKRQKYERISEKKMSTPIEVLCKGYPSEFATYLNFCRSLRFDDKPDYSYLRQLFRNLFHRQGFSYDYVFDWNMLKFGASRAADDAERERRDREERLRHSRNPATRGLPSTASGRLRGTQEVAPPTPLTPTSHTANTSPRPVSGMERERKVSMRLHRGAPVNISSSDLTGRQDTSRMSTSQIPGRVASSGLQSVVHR
T4 sequence (P36507 whole entry): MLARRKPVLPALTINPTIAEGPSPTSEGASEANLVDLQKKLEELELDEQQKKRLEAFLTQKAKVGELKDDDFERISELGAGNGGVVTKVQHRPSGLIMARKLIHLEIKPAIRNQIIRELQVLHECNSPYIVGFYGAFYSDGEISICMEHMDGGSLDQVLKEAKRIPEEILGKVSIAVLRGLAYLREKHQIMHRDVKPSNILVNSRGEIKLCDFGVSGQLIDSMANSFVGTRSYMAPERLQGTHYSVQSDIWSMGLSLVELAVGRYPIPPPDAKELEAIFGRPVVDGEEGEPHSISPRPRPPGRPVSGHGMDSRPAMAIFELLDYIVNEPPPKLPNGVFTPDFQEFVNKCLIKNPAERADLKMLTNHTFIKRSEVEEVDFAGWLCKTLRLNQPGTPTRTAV
T3 sequence (Q86UX6 whole entry): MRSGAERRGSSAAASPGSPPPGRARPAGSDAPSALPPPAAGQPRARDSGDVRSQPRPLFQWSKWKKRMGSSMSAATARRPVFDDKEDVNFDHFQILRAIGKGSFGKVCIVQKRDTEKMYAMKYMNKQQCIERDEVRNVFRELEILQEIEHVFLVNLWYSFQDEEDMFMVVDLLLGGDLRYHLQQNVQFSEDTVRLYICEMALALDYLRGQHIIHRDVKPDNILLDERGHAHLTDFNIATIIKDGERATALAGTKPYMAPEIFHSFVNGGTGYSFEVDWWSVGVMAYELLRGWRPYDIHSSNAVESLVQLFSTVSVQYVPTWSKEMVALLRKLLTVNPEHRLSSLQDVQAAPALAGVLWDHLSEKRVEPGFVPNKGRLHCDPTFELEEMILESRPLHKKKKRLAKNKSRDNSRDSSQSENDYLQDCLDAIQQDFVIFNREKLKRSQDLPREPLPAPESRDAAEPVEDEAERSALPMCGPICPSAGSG
T6 sequence (P07948 whole entry): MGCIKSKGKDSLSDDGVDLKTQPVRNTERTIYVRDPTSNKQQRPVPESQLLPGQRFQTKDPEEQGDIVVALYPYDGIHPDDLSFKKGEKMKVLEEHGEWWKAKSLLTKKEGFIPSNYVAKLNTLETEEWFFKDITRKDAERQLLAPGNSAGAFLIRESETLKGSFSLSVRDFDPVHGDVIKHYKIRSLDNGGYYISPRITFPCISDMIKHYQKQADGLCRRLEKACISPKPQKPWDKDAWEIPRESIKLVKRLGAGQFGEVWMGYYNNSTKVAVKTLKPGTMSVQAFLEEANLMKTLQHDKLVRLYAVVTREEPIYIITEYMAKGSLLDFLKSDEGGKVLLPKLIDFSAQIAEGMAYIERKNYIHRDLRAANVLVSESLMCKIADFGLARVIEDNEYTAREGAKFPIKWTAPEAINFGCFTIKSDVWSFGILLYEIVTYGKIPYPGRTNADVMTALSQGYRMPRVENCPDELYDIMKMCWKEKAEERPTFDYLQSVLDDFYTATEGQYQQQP
T1 sequence (Q16288 32-839): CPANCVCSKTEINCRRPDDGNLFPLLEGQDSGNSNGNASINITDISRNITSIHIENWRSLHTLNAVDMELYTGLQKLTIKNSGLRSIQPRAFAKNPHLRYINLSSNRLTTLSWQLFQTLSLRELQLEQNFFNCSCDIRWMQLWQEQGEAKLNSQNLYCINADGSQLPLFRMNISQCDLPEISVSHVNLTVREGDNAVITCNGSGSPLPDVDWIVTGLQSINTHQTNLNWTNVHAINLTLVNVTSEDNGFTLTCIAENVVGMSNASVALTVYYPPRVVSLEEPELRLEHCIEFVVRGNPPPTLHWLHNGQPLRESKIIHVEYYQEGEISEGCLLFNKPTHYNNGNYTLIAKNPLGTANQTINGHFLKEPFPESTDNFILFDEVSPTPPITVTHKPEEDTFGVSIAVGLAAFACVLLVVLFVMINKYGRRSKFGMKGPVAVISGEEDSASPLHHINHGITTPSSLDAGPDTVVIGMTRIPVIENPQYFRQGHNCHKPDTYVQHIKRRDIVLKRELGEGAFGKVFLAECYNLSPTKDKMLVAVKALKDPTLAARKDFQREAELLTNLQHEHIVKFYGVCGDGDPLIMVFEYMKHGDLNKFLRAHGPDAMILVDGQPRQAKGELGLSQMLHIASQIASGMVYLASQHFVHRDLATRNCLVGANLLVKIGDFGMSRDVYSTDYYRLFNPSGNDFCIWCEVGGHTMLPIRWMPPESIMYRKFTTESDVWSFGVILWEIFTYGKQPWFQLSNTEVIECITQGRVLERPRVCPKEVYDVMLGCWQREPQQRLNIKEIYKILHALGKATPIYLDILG

Row | Structure (SMILES) | remaining activity at 5 µM [1] [%] | remaining activity at 5 µM [2] [%] | remaining activity at 5 µM [3] [%] | remaining activity at 5 µM [4] [%] | remaining activity at 5 µM [5] [%] | remaining activity at 5 µM [6] [%] | remaining activity at 5 µM [7] [%] | remaining activity at 5 µM [8] [%] | remaining activity at 5 µM [9] [%] | remaining activity at 10 µM ([1]; kinase TRKC, 10 uM, read-out: % Enzyme Activity (relative to DMSO controls)) [%] | remaining activity at 10 µM ([2]; 10 uM) [%] | remaining activity at 10 µM ([3]; 10 uM) [%] | remaining activity at 10 µM ([4]; 10 uM) [%] | remaining activity at 10 µM ([5]; 10 uM) [%] | remaining activity at 10 µM ([6]; 10 uM) [%] | remaining activity at 10 µM ([7]; 10 uM) [%] | remaining activity at 10 µM ([8]; 10 uM) [%] | remaining activity at 10 µM ([9]; 10 uM) [%]
1 | O=C(Nc1cnn(-c2csc(C(=O)NC3COC3)c2)c1)Nc1c(F)cccc1Cl [Compound 25, 4-(4-(3-(2-chloro-6-fluorophenyl)ureido)-1H-pyrazol-1-yl)-N-(oxetan-3-yl)thiophene-2-carboxamide] | 38.6 | 117 | 90.7 | 90.6 | 82 | 95.3 | 91.2 | 93.6 | 90.6 |  |  |  |  |  |  |  |  | 
2 | O=C(Nc1cnn(-c2csc(C(=O)NC3COC3)c2)c1)Nc1ccccc1Cl [Compound 17, 4-(4-(3-(2-chlorophenyl)ureido)-1H-pyrazol-1-yl)-N-(oxetan-3-yl)thiophene-2-carboxamide] | 64.3 | 101 | 113 | 92.2 | 124 | 96.8 | 102 | 92.7 | 122 |  |  |  |  |  |  |  |  | 
3 | Cc1sc(C(=O)NC2COC2)cc1-n1cc(NC(=O)Nc2c(F)cccc2Cl)cn1 [Compound 27, 4-(4-(3-(2-chloro-6-fluorophenyl)ureido)-1H-pyrazol-1-yl)-5-methyl-N-(oxetan-3-yl)thiophene-2-carboxamide] |  |  |  |  |  |  |  |  |  | 86 | 112 | 112 | 99.5 | 78.5 | 106 | 84 | 105 | 110
